Assay results taken from PubChem BioAssay (NCI).
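Growth conditions: 96-well plates. Treatment: test compound, 48 hours, 5 concentrations. Analysis: linear interpolation between bracketing concentrations; unreached endpoints set to highest concentration. GI50: concentration for 50% inhibition of growth. TGI is the concentration that stops growth completely.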

Legend:
Assay in all cases: NCI-60 cell line screen, 48 h
[1] = tested on: UACC-62 melanoma
[2] = tested on: HCT-116 colon
[3] = tested on: OVCAR-8 ovarian
[4] = tested on: U251 CNS
[5] = tested on: SK-OV-3 ovarian
[6] = tested on: COLO 205 colon
[7] = tested on: HL-60(TB) leukemia
[8] = tested on: RPMI-8226 leukemia
[9] = tested on: PC-3 prostate
[10] = tested on: MDA-MB-435

| Structure (SMILES) | TGI [1] [µM] | TGI [2] [µM] | TGI [3] [µM] | TGI [4] [µM] | TGI [5] [µM] | TGI [6] [µM] | TGI [7] [µM] | TGI [8] [µM] | GI50 [1] [µM] | GI50 [3] [µM] | GI50 [4] [µM] | GI50 [5] [µM] | GI50 [9] [µM] | TGI [9] [µM] | GI50 [6] [µM] | GI50 [7] [µM] | GI50 [8] [µM] | GI50 [2] [µM] | GI50 [10] [µM] | TGI [10] [µM] |
| --- | --- | --- | --- | --- | --- | --- | --- | --- | --- | --- | --- | --- | --- | --- | --- | --- | --- | --- | --- | --- |
| NNC(=O)CC(=O)Nc1ccccc1F | > 100 | > 100 | > 100 | > 100 | > 100 | > 100 | > 100 | > 100 | – | – | – | – | – | – | – | – | – | – | – | – |
| Cn1c(=O)c(C(c2ccccc2)c2c(O)c3ccccc3n(C)c2=O)c(O)c2ccccc21 | > 100 | > 100 | > 100 | > 100 | > 100 | > 100 | > 100 | > 100 | – | – | – | – | – | – | – | – | – | – | – | – |
| CC1SC2=NC3=C(c4ccccc4C3=O)C(c3ccc(Br)cc3)N2C1=O (centres undefined) | > 100 | – | > 100 | > 100 | > 100 | > 100 | 62.8 | > 100 | – | – | – | – | – | – | – | – | – | – | – | – |
| COc1cc(Nc2ncc3c(n2)-c2ccc(Cl)cc2C(c2c(F)cccc2OC)=NC3)ccc1C(=O)O | 30.1 | – | > 100 | 33.3 | 44 | 16.7 | > 68 | > 65 | 3.9 | 8.94 | 2.74 | 10.6 | 7.87 | 70.4 | 0.0651 | 16.5 | 12 | – | – | – |
| CC1=C(C(=O)Nc2ccccc2C)C(c2ccc(N(C)C)cc2)C(C(=O)Nc2ccccc2C)=C(C)N1 | > 100 | > 100 | > 100 | > 100 | > 100 | > 100 | 53.8 | > 100 | – | – | – | – | – | – | – | – | – | – | – | – |
| COC1=NN2C(OC)(c3ccccc3)c3c(-c4ccccc4)sc(-c4ccccc4)c3C2(c2ccccc2)S1 (centres undefined) | > 100 | > 100 | > 100 | > 100 | > 100 | > 100 | > 100 | – | – | – | – | – | – | – | – | – | – | – | – | – |
| COc1ccc(-c2cc(-c3ccccc3)c(C#N)c(=O)[nH]2)cc1 | > 100 | > 100 | > 100 | > 100 | > 100 | > 100 | > 100 | > 100 | – | – | – | – | – | – | – | – | – | – | – | – |
| COc1cc(C)c(C(=O)/C=C/c2cc(OC)c(O)c(OC)c2)cc1O | 44.1 | 27 | > 100 | 44.6 | 85.1 | > 100 | 64.8 | > 100 | – | – | – | – | – | – | – | – | – | – | – | – |
| COc1ccc(C(=O)Nc2ncc(Cc3ccc(F)cc3)s2)cc1 | > 94.4 | > 100 | > 100 | > 89.1 | > 100 | – | 0.169 | – | 0.0469 | 0.135 | 0.0686 | 0.277 | 0.0513 | > 100 | 0.0584 | 0.0315 | 0.0373 | 0.0519 | – | – |
| CC(C)O/C=C1\C(=O)C2(SCCS2)[C@H]2CCCC[C@@H]12 | 69.4 | > 100 | > 100 | > 100 | > 100 | 33.4 | 53.4 | 81 | – | – | – | – | – | – | – | – | – | – | – | – |
| CCC[CH2][Sn]1([CH2]CCC)[O]C(=O)C[S]1 | 2.89 | 4.49 | 5.46 | 2.65 | 14 | 4.11 | 4.66 | 3.57 | 1.35 | 2.11 | 1.33 | 4.63 | – | – | 1.75 | 1.02 | 0.455 | 1.91 | – | – |
| O=C1Cc2ccccc2N1/N=C\c1ccc(O)cc1 | > 100 | > 100 | > 100 | > 100 | > 100 | > 100 | – | > 100 | – | – | – | – | – | – | – | – | – | – | – | – |
| COc1cc2ccc(CC#N)cc2cc1OC | – | – | > 100 | > 100 | > 100 | – | > 100 | – | – | – | – | – | – | – | – | – | – | – | – | – |
| C(=C1\CCC/C(=C/c2ccccc2)C1=NNc1ccccc1)/c1ccccc1 | > 100 | > 100 | > 100 | > 100 | > 100 | > 100 | > 100 | > 100 | – | – | – | – | – | – | – | – | – | – | – | – |
| Nc1c(C(=O)Nc2cccc3ccccc23)sc2nc3c(cc12)CCCC3 | > 100 | > 100 | > 100 | > 100 | > 100 | 9.53 | 0.802 | > 100 | 0.716 | 4.56 | 0.781 | 1.54 | 1.8 | > 100 | 2.45 | 0.233 | 2.77 | 0.8 | – | – |
| CNC1=C(C)C(=O)C(C)=C(C(C)(C)CC(=O)n2cc(F)c(=O)[nH]c2=O)C1=O | > 100 | > 100 | > 100 | > 100 | > 100 | > 100 | > 100 | > 100 | – | – | – | – | – | – | – | – | – | – | – | – |

| Structure (SMILES) | TGI [1] [µM] | TGI [2] [µM] | TGI [3] [µM] | TGI [4] [µM] | TGI [5] [µM] | TGI [6] [µM] | TGI [7] [µM] | TGI [8] [µM] | GI50 [1] [µM] | GI50 [3] [µM] | GI50 [4] [µM] | GI50 [5] [µM] | GI50 [9] [µM] | TGI [9] [µM] | GI50 [6] [µM] | GI50 [7] [µM] | GI50 [8] [µM] | GI50 [2] [µM] | GI50 [10] [µM] | TGI [10] [µM] |
| --- | --- | --- | --- | --- | --- | --- | --- | --- | --- | --- | --- | --- | --- | --- | --- | --- | --- | --- | --- | --- |
| O=C(N/C(=C\c1ccc([N+](=O)[O-])cc1)c1nc2[nH]c(=S)[nH]c(=O)c2[nH]1)c1ccccc1 | > 100 | – | > 100 | > 100 | > 100 | > 100 | – | – | – | – | – | – | – | – | – | – | – | – | – | – |
| O=C1C2Cc3ccccc3CN2C(=O)N1CN1CCN(CN2C(=O)C3Cc4ccccc4CN3C2=O)CC1 (centres undefined) | > 100 | – | > 100 | > 100 | > 100 | > 100 | > 100 | > 100 | – | – | – | – | – | – | – | – | – | – | – | – |
| COc1cc(NCC(C#N)C#N)ccc1N=Nc1ccc([N+](=O)[O-])cc1 | > 100 | > 100 | > 100 | > 100 | > 100 | > 100 | – | > 100 | – | – | – | – | – | – | – | – | – | – | – | – |
| O=C1OCC2=C1C(c1cccc(F)c1)c1cc3c(cc1N2CCO)OCCO3 (centres undefined) | > 50 | > 50 | > 50 | > 50 | > 50 | 7.43 | 0.387 | > 50 | 0.112 | 0.244 | 0.221 | 0.26 | 0.195 | > 50 | 0.204 | 0.137 | 0.207 | 0.204 | – | – |
| CCCNC(=O)c1cc2ccccc2cc1C(=O)OC | > 100 | > 100 | > 100 | > 100 | > 100 | > 100 | > 100 | > 100 | – | – | – | – | – | – | – | – | – | – | – | – |
| CCOC(=O)CNC(SC)=C(C#N)C#N | > 100 | > 100 | > 100 | > 100 | > 100 | > 100 | > 100 | > 100 | – | – | – | – | – | – | – | – | – | – | – | – |
| O=C1C2C(C(=O)[N]1[Hg][c]1ccccc1)C1(Cl)C(Cl)=C(Cl)C2(Cl)C1(Cl)Cl (centres undefined) | 2.72 | 2.87 | – | 2.49 | 5.17 | 2.05 | 8.77 | 5.94 | 1.37 | – | 1.21 | 1.87 | 6.42 | 23.7 | 0.809 | 2.51 | 1.64 | 1.54 | – | – |
| O=C1c2c(c3c4ccccc4n4c3c3c2c2ccccc2n3C/C=C\C4)C(=O)N1Cc1ccccc1 | > 100 | > 100 | > 100 | > 100 | > 100 | > 100 | > 100 | > 100 | – | – | – | – | – | – | – | – | – | – | – | – |
| COc1cc2c(c3oc(-c4ccc5c(c4)OCO5)c(O)c(=O)c13)CCC(C)(C)O2 | > 100 | – | > 100 | – | > 100 | > 100 | > 100 | > 100 | – | – | – | – | – | – | – | – | – | – | – | – |
| CCOC(=O)c1c(-c2[nH]c(C(=O)OCc3ccccc3)c(C)c2C(=O)OCC)[nH]c(C(=O)OCc2ccccc2)c1C | > 100 | > 100 | > 100 | > 100 | > 100 | > 100 | – | > 100 | – | – | – | – | – | – | – | – | – | – | – | – |
| COc1ccc(CNc2nc3ccccc3nc2-c2cccs2)cc1OC | – | > 100 | > 100 | > 100 | – | > 100 | > 100 | > 100 | – | – | – | – | – | – | – | – | – | – | – | – |
| O=C(O)c1cn(C2CC2)c2cc(N3CCN(S(=O)(=O)c4ccc(Cl)c(Cl)c4)CC3)c(F)cc2c1=O | – | > 100 | > 100 | > 100 | – | 11.9 | 5.17 | 7.59 | – | 3.33 | 3.33 | – | – | – | 3.5 | 2.04 | 2.53 | 3.86 | 2.97 | > 100 |
| CSc1nc2c(nc(N)n2C2OCC(O)C(O)C2O)c(=O)[nH]1 (centres undefined) | > 100 | > 100 | > 100 | > 100 | > 100 | > 100 | > 100 | – | – | – | – | – | – | – | – | – | – | – | – | – |
| O=C1c2cnccc2Cc2cccc3c2N1c1ccccc1S3 | 41.7 | 33.8 | – | 34 | – | 59.2 | 67.1 | 88.1 | – | – | – | – | – | – | – | – | – | – | – | – |
| OCCc1cnco1 | > 100 | > 100 | > 100 | > 100 | > 100 | > 100 | > 100 | > 100 | – | – | – | – | – | – | – | – | – | – | – | – |
| COc1cc(C2[C@H]3C(=O)N(c4ccc(Cc5ccc(N6C(=O)[C@@H]7ON(c8ccccc8)C(c8cc(OC)c(OC)c(OC)c8)[C@@H]7C6=O)cc5)cc4)C(=O)[C@H]3ON2c2ccccc2)cc(OC)c1OC (some centres undefined) | > 100 | > 100 | > 100 | > 100 | > 100 | > 100 | > 100 | > 100 | – | – | – | – | – | – | – | – | – | – | – | – |
